We go through two compounds from article PMC10197133, “Synthesis, Computational Insights, and Evaluation of Novel Sigma Receptors Ligands” (ACS Chemical Neuroscience, 2023).

Entries after “also recorded” stand apart in the source; their conditions may differ.

The target of assay [1] is T1, S1R (Rattus norvegicus, UniProt Q9R0C9). The note with it: statement in the introduction; cited from earlier work.
For the next assay, the target named is T2, S2R (Rattus norvegicus, UniProt Q5U3Y7).
T2 construct: from tissue; host or cells: rat liver homogenate (male Sprague-Dawley)
T2 sequence (Q5U3Y7 1-176): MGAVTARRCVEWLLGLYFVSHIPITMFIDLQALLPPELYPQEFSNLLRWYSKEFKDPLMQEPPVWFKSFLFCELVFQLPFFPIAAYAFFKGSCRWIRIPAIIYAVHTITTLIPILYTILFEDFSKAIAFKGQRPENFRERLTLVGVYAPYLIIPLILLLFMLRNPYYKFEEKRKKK
Description: S2R radioligand binding assay, [3H]DTG with (+)-pentazocine as S1R masking agent, liver homogenates. The note with it: read-out: Ki (nM) ± SD S2R. On the set-up: species or system male Sprague-Dawley rats. As to the method:
(§1) The Ki-values were calculated with the program GraphPad Prism 7.0 (GraphPad Software, San Diego, California). The Ki-values are given as mean value ± SD from at least two independent experiments performed in duplicate.

The subject of assay [2] is capsaicin-induced mechanical hypersensitivity in mice. Description: Capsaicin-induced secondary mechanical hypersensitivity (allodynia). In kind it is in vivo, female CD1 mice. The procedure:
We used capsaicin-induced secondary hypersensitivity (allodynia) as a pain model. It has been described that the increase in mechanical sensitivity in the area surrounding capsaicin injection (area of secondary allodynia) is due to central sensitization, which is a relevant process for chronic pain development and maintenance.[48]
Experiments were performed in female CD1 mice (Charles River, Barcelona, Spain) weighing 25–30 g. The mice were acclimated in our animal facilities for at least 1 week before testing and housed in a room under controlled environmental conditions: 12/12 h day/night cycle, air replacement every 20 min, and regulated temperature (22 ± 2 °C). The animals were fed a standard laboratory diet (Harlan Teklad Research Diet, Madison, Wisconsin) and tap water ad libitum until the beginning of the experiments. Testing was always performed from 9.00 to 15.00 h and randomly throughout the oestrous cycle. Animal care was made in accordance with institutional (Research Ethics Committee of the University of Granada, Spain), regional (Junta de Andalucía, Spain), and international standards (European Communities Council Directive 2010/63).
As selective S1R drugs, we used the S1R antagonist BD-1063 (1-[2-(3,4-dichlorophenyl)ethyl]-4-methylpiperazine dihydrochloride) and the S1R agonist PRE-084 (2-(4-morpholinethyl)-1-phenyl cyclohexane carboxylate hydrochloride) (both provided by Tocris Cookson, Bristol, U.K.).[57] The standard or experimental compounds were dissolved in 5% DMSO (Merck KGaA, Darmstadt, Germany) in physiological sterile saline (0.9% NaCl). They were prepared immediately before the start of the experiments and injected s.c. in a volume of 5 mL/kg into the interscapular area.
To test for the antiallodynic effects of BD-1063, 4b, 5b, or 8f, they were administered 30 min before the injection of capsaicin, used as the chemical algogen. To test the effects of PRE-084 or 4b on the antiallodynia induced by BD-1063, 8f, or 5b, the former were administered 5 min before the latter. When the effect of the association of several drugs was assessed, each injection was performed in different areas of the interscapular zone to avoid mixture of the drug solutions and any physicochemical interaction between them.
Capsaicin (Sigma-Aldrich Química S.A.) was dissolved in 1% DMSO in physiological sterile saline to a concentration of 0.05 μg/μL (i.e., 1 μg per mouse). Capsaicin solution was injected intraplantarly (i.pl.) into the right hind paw proximate to the heel, in a volume of 20 μL using a 1710 TLL Hamilton microsyringe (Teknokroma, Barcelona, Spain) with a 30^1/2-gauge needle. Control animals were injected with the same volume of the vehicle of capsaicin.
Animals were placed for 2 h in individual black-walled test compartments, which were situated on an elevated mesh-bottom platform with a 0.5-cm^2 grid to provide access to the ventral surface of the hind paws. Punctate mechanical stimulation was applied with a Dynamic Plantar Aesthesiometer (Ugo Basile, Varese, Italy) 15 min after capsaicin or saline administration (i.e., 45 min after the injection of the experimental drug). Briefly, a nonflexible filament (0.5 mm diameter) was electronically driven into the ventral side of the right hind paw (which was previously injected with capsaicin or vehicle) at least 5 mm away from the site of the injection toward the fingers. The intensity of the stimulation was fixed at 0.5 g force, as described previously.[49],[50] When a paw withdrawal response occurred, the stimulus was automatically terminated and the response latency was recorded. The filament was applied three times at intervals of 0.5 min, and the mean value of the three trials was considered the withdrawal latency time of the animal.

Assay [3] deals with T1, S1R. Description: S1R radioligand binding assay, [3H](+)-pentazocine, liver homogenates. On the set-up: from tissue; host or cells: rat liver homogenate (male Sprague-Dawley); species or system male Sprague-Dawley rats. As to the method: as §1
For assay [4], the target named is T1, S1R. As to the kind of experiment: S1R functional assay: S1R radioligand binding with or without phenytoin. On the set-up: incubating 200 μL of membrane preparation with 50 μL of 20 nM; from tissue; host or cells: membrane preparation. The procedure: In order to further asses the functional profile of compounds 4b, 5b, and 8f, the well-established phenytoin-based functional assay was carried out.[52] Previous studies have shown that phenytoin, a low-potent allosteric modulator for the S1R, differentially modulates the affinity of S1R ligands depending on their agonist versus antagonist functionality.
The functionality of compounds 4b, 5b, and 8f on S1R was determined using the same radiolabeled binding assay for the S1R in the presence of phenytoin. […] The final volume was 0.5 mL.

T1 sequence (Q9R0C9 whole entry): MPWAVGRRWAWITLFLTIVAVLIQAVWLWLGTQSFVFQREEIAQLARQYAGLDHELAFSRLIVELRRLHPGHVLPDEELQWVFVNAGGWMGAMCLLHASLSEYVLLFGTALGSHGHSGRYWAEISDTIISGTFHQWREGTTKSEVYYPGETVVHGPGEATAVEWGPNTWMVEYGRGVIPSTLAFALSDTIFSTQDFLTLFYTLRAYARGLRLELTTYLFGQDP

Turning to `CCCN1CCC(c2cccc(S(C)(=O)=O)c2)CC1` [Pridopidine], on S1R [1], the “fold greater affinity for S1R than for D2” value is 100 fold.
For orientation: Ki means the dissociation constant of the complex between target and ligand, obtained from inhibition or displacement. `O=C(Cc1ccccc1)N1CCC2(CC1)CN(CCc1ccccc1)C2` [5b, 1-(2-Phenethyl-2,7-diazaspiro[3.5]nonan-7-yl)-2-phenylethan-1-one]: the Ki on S2R is 102 ± 26 nM; on S1R [3] (read-out: Ki (nM) ± SD S1R), 13 ± 2.5 nM; on S1R [4] (with phenytoin (20 μL of 25 mM in 0.5 mL), 120 min at 37 °C, read-out: Ki (nM) + phenythoin), 14 nM; on S1R [4] (without phenytoin, read-out: Ki (nM) control) it was 12 nM. The “antiallodynic effect when associated with the S1R agonist PRE-084” value in assay [2] (PRE-084 32 mg/kg s.c. 5 min before, BD-1063 40 mg/kg, 8f and 5b 20 mg/kg s.c.) is given as “abolish the antiallodynic effect; also recorded: completely reversed their antiallodynic action”. The “S1R functional profile in vivo” value in assay [2] (concluded from the capsaicin model) is “S1R antagonistic in vivo effect”. Further, the “antiallodynic effect, compound administered alone” value in assay [2] (s.c., 30 min before capsaicin 1 μg i.pl., paw withdrawal latency at 0.5 g force, 4b 5–20 mg/kg, PRE-084 32 mg/kg) was “mimicked the effect of the known S1R antagonist”. In assay [2] (s.c., capsaicin 1 μg i.pl., mice), the “dose reaching full reversal of mechanical hypersensitivity (maximum antiallodynic effect)” value stood at 20 mg/kg. Further, the “KiS2R/KiS1R (preference for S1R over S2R)” value at S1R [3] (ratio of S2R Ki to S1R Ki) is reported as 7.8. The “ratio Ki (nM) control/+ phenythoin” value at S1R [4] (>1 agonist, ≤1 antagonist) was 0.9. Moreover, the “S1R functional profile in vitro (phenytoin assay)” value at S1R [4] (concluded from Ki ratio control/with phenytoin) is recorded as “antagonists for the S1R”.
